As usually defined, the IC50 is the concentration needed to halve the response being measured. Read a low IC50 as inhibition by little substance.

Entries after “also recorded” stand apart in the source; their conditions may differ.

The test system of series [1] is human fibroblast cell lines (F2). The series can be described thus: MTT cytotoxic / anti-proliferative assay, normal fibroblast. The class given is cell-based. The procedure:
(§1) The benxoxazepine derivative compound of the present disclosure was dissolved in DMSO to give a […] concentration. The DMSO concentration was less than 1.0% in all experiments and controls.
(§2) The evaluation of anti-proliferative activity was preformed to different cancer cells named human cervical adenocarcinoma (HeLa), adenocarcinoma human alveolar basal epithelial cells (A549), human breast cancer (MCF-7), colon adenocarcinoma Caco-2, compared with human fibroblast cell lines (F2). All cells were grown in Dulbecco's modified Eagle's minimal essential medium (DMEM), supplemented with 25 mM glucose, 10% inactivated fetal bovine serum (Flow, McLean, VA, USA), and 1% penicillin/streptomycin, and maintained at 37° C. in a humidified incubator with 5% CO2. The cells with 30-40 passages were used for further investigations.
(§3) Exponentially growing cells A549, HeLa, Caco-2, MCF-7, and normal fibroblast cell cells have been washed and seeded at 3×10^3 cells/well (100 μL/well) in 96 well microplates (Greiner, Germany). […] In vitro anti-proliferative activity was measured by the cell growth inhibition assay using 3-(4,5-dimethyl-thiazol-2-yl)-2,5-di-phenyltetrazolium bromide (MTT) assay according to the manufacturer's instructions (Promega Corporation, Madison, WI). Briefly, the assay measured the formation of blue formazan product as a result of the reduction of MTT by mitochondrial dehydrogenase, which indicates the normal function of mitochondria and cell viability. The amount of formazan was quantified using a microplate reader (Thermo Fisher Scientific, Waltham, MA, USA) and compared to the optical density obtained for the control (untreated) at 570 nm. The IC50 values were calculated according to the equation for Boltzmann sigmoidal concentration response curve using the nonlinear regression models (GraphPad, Prism Version 7, San Diego, CA, USA). The average of three replicates of IC50 values were calculated and mentioned in the present disclosure Table 1. […]

For series [2], the system named is release of TNF-α of A549 cell lines. The experiment in a line: TNF-α release ELISA, A549. Conditions: 1, 5, 10, 25, 50 μg/mL, overnight, ELISA of supernatant. In kind it is cell-based, human. How it is done:
(§4) Non-treated cells were used as negative controls. […] All incubation steps were performed at room temperature.

The subject of series [3] is adenocarcinoma human alveolar basal epithelial cells (A549). The experiment in a line: MTT cytotoxic / anti-proliferative assay, A549. The class given is cell-based. How it is done:
as §1, §2
(§5) Exponentially growing cells A549, HeLa, Caco-2, MCF-7, and normal fibroblast cell cells have been washed and seeded at 3×10^3 cells/well (100 μL/well) in 96 well microplates (Greiner, Germany). After 24 h, cells were confluent, and media was changed, and cells were incubated with the compound of the present disclosure (200-1 μg/mL) for 24 h. In vitro anti-proliferative activity was measured by the cell growth inhibition assay using 3-(4,5-dimethyl-thiazol-2-yl)-2,5-di-phenyltetrazolium bromide (MTT) assay according to the manufacturer's instructions (Promega Corporation, Madison, WI). Briefly, the assay measured the formation of blue formazan product as a result of the reduction of MTT by mitochondrial dehydrogenase, which indicates the normal function of mitochondria and cell viability. The amount of formazan was quantified using a microplate reader (Thermo Fisher Scientific, Waltham, MA, USA) and compared to the optical density obtained for the control (untreated) at 570 nm. The IC50 values were calculated according to the equation for Boltzmann sigmoidal concentration response curve using the nonlinear regression models (GraphPad, Prism Version 7, San Diego, CA, USA). The average of three replicates of IC50 values were calculated and mentioned in the present disclosure Table 1.
(§6) The anti-proliferative activity of the investigated compound of formula 1 of the present disclosure was expressed in IC50 values (the concentration needed to inhibit 50% of cell growth) compared to untreated cells (negative control).

Series [4] has as its system release of TNF-α of normal fibroblast cell. The series can be described thus: TNF-α release ELISA, normal fibroblast. The class given is cell-based, human. Conditions: 1, 5, 10, 25, 50 μg/mL, overnight, ELISA of supernatant. How it is done: as §4
A general note: In an ELISA, binding on a coated surface is turned into a signal by an enzyme label.

In series [5] the test system is release of TNF-α of MCF-7 cell lines. The experiment in a line: TNF-α release ELISA, MCF-7. Conditions: 1, 5, 10, 25, 50 μg/mL, overnight, ELISA of supernatant. The class given is cell-based, human. The procedure:
as §4

The subject of series [6] is release of IL-6 of normal fibroblast cell. The experiment in a line: IL-6 release ELISA, normal fibroblast. Conditions: 1, 5, 10, 25, 50 μg/mL, overnight, ELISA of supernatant. The class given is cell-based, human. The procedure:
as §4

Series [7] has as its system human cervical adenocarcinoma (HeLa). The experiment in a line: MTT cytotoxic / anti-proliferative assay, HeLa. In kind it is cell-based. The procedure: as §1, §2, §3
For series [8], the system named is human breast cancer (MCF-7). The series can be described thus: MTT cytotoxic / anti-proliferative assay, MCF-7. In kind it is cell-based. The procedure: as §1, §2, §5, §6
For series [9], the system named is release of TNF-α of HeLa cell lines. The experiment in a line: TNF-α release ELISA, HeLa. In kind it is cell-based, human. Conditions: 1, 5, 10, 25, 50 μg/mL, overnight, ELISA of supernatant. How it is done:
as §4

Series [10] deals with colon adenocarcinoma Caco-2. The series can be described thus: MTT cytotoxic / anti-proliferative assay, Caco-2. The class given is cell-based, human. Conditions: MTT.
Series [11] concerns release of IL-6 of MCF-7 cell lines. The series can be described thus: IL-6 release ELISA, MCF-7. The class given is cell-based, human. Conditions: 1, 5, 10, 25, 50 μg/mL, overnight, ELISA of supernatant. The procedure: as §4
Series [12] deals with release of IL-6 of A549 cell lines. The series can be described thus: IL-6 release ELISA, A549. The class given is cell-based, human. Conditions: 1, 5, 10, 25, 50 μg/mL, overnight, ELISA of supernatant. The procedure:
as §4

Series [13] concerns release of TNF-α of Caco-2 cell lines. The experiment in a line: TNF-α release ELISA, Caco-2. The class given is cell-based, human. Conditions: 1, 5, 10, 25, 50 μg/mL, overnight, ELISA of supernatant. The procedure:
as §4

In series [14] the test system is release of IL-6 of HeLa cell lines. The experiment in a line: IL-6 release ELISA, HeLa. In kind it is cell-based, human. Conditions: 1, 5, 10, 25, 50 μg/mL, overnight, ELISA of supernatant. How it is done:
as §4

Series [15] can be described thus: MTT cytotoxic / anti-proliferative assay, Caco-2. The class given is cell-based, human. Conditions: human; calculated SI for cancer cell Caco-2; SI higher than 1.0 considered selective to cancer cell; read-out: Selectivity index (SI) Caco-2.
Setting [16] is: 24 h incubation, average of three replicates.
Setting [17] is: MTT, 24 h incubation, average of three replicates.

Take `N.N.[Cl][Pt][Cl]` [Cisplatin, cisplatin, reference compound]: in [1] (setting [16]), the “IC50 Fibroblast” value was 2.83 ± 0.12 µg/mL. In addition, the “effect on the release of TNF-α, A549” value in series [2] was “release TNF-α”. In series [3] (setting [17]), the “IC50 A549” value came to 3.13 ± 0.53 µg/mL. Besides, the “effect on the release of TNF-α, normal fibroblast cells” value in [4] was “not able to induce the release”. Moreover, the “effect on the release of TNF-α, MCF-7” value in [5] is recorded as “release TNF-α”. Further, the “effect on the release of IL-6, normal fibroblast cells” value in [6] is “not able to induce the release”. Moreover, the “IC50 HeLa” value in series [7] (setting [16]) was 0.13 µg/mL. Also, the “IC50 MCF-7” value in series [8] (setting [17]) stood at 1.51 ± 0.10 µg/mL. Also, the “effect on the release of TNF-α, HeLa” value in [9] is reported as “release TNF-α”.
For `C[S+](C)[O-]` [DMSO %, dimethyl sulfoxide], the “IC50 Fibroblast (DMSO %)” value in series [1] (DMSO, value as % DMSO) is given as 0.13 ± 0.02%. Moreover, in [3] (MTT, DMSO, value as % DMSO), the “IC50 A549 (DMSO %)” value turned out to be 0.33 ± 0.05%. Besides, the “IC50 HeLa (DMSO %)” value in series [7] (DMSO, value as % DMSO) is on record as 0.15 ± 0.02%. The “IC50 MCF-7 (DMSO %)” value in [8] (MTT, DMSO, value as % DMSO) turned out to be 0.097 ± 0.02%. For the same compound, the “IC50 Caco-2 (DMSO %)” value in series [10] (DMSO, value as % DMSO) worked out at 23.40 ± 3.20%.
Turning to `c1ccc2c3c(ccc2c1)OCCn1c-3nc2ccccc21` [compound of the general Formula (I)], the IC50 in series [1] (Homo sapiens, Fibroblast, 24 h incubation, average of three replicates) is 19.9 ± 1.4 µg/mL; in [3] (Homo sapiens, A549, MTT, 24 h incubation, average of three replicates), 15.7 ± 0.54 µg/mL; in [7] (Homo sapiens, HeLa, 24 h incubation, average of three replicates) it was 3 ng/mL; in series [8] (Homo sapiens, MCF7, MTT, 24 h incubation, average of three replicates) it was 17.6 ± 0.72 µg/mL; in series [10] (Homo sapiens, Caco-2, 24 h incubation, average of three replicates), 41.3 µg/mL. The “Selectivity index (SI) A549” value in series [3] (calculated SI for cancer cell A549, SI higher than 1.0 considered selective to cancer cell) is reported as 1.27. In addition, the “effect on the release of TNF-α, normal fibroblast cells” value in [4] is on record as “not able to induce the release”. Also, the “effect on the release of IL-6, MCF-7” value in series [11] was “stimulated the release of IL-6”; in series [11] (listed as tested compound) it was “able to stimulate the release of IL-6”. Moreover, the “effect on the release of IL-6, A549” value is reported as “stimulated the release of IL-6” in series [12] and “able to stimulate the release of IL-6” in series [12] (listed as tested compound). Besides, the “effect on the release of IL-6, normal fibroblast cells” value in series [6] (listed as tested compound) is “no effect; also recorded: not able to induce the release”. Further, the “effect on the release of TNF-α, Caco-2” value in [13] is reported as “only 50 μg/mL concentration was able to stimulate Caco-2 cell lines to significantly release TNF-α”; in [13] (listed as tested compound) it was “able to stimulate Caco-2 cell lines to significantly release TNF-α when treated with 50 μg/mL concentration only”. The “effect on the release of IL-6, HeLa” value in series [14] is on record as “stimulated the release of IL-6”; in [14] (listed as tested compound), “able to stimulate the release of IL-6”. In series [8] (calculated SI for cancer cell MCF-7, SI higher than 1.0 considered selective to cancer cell), the “Selectivity index (SI) MCF-7” value was 1.13. The selectivity ratio at 24 h in series [15] is 0.48.

(Values after patent US20240358713A1, “PHARMCAEUTICAL COMPOSITION CONTAINING BENZOXAZEPINE DERIVATIVES, AND A METHOD FOR TREATING CANCER” (Yarmouk University, priority 2023, published 2024).)
